Tested on: 188146-221-R-J1-PDC complex spheroid viability
Test: Anticancer human tumor 188146-221-R-J1-PDC patient-derived colon adenocarcinoma cell line growth inhibition [POLQ]
Conditions: for IC50: curve of first compound; for viability, T/C: stronger effect = lower value
Procedure: Multicellular complex tumor spheroid response to Polymerase (POL) inhibitors (novobiocin, ART-558, RP6685) in combination with a variety of drugs and investigational agents in selected tumor cell lines
The POL inhibitors (novobiocin, ART-558, and RP6685) were evaluated both individually and in combination with standard of care and investigational anticancer small molecules within a complex spheroid model of solid tumors. . Complex spheroids include a stromal component modeled by human endothelial cells (HUVEC) and fibroblasts modeled by human mesenchymal stem cells (MSCs). The concentration ranges selected for each drug and investigational agent were based upon clinically achievable concentrations if the clinical Cmax of the agent was known.
Compounds. The drugs and investigational agents: novobiocin (NSC847541), ART-558 (NSC835418), RP-6685 (NSC848927), peposertib (NSC802822), ceralasertib (NSC780249), elimusertib (NSC800525), camonsertib (NSC841442), AZD-1390 (NSC803789), olaparib (NSC753686), talazoparib (NSC767125), rucaparib (NSC756644), sotorasib (NSC818433), MRTX-1133 (NSC836407), SN-38 (NSC673596), topotecan (NSC609699), epotoside (NSC141540), doxorubicin (NSC123127), gemcitabine (NSC613327), 5-fluorouracil (NSC19893), paclitaxel (NSC125973), vemurafenib (NSC761431), MSA-2 (NSC828583), SN-011 (NSC837082), adavosertib (NSC754352), prexasertib (NSC758257), carboplatin (NSC241240) and oxaliplatin (NSC266046), were obtained from the National Cancer Institute (NCI) Developmental Therapeutics Program Chemical Repository (21). The FDA-approved anticancer drug set is available from the Developmental Therapeutics Program at https://dtp.cancer.gov/organization/dscb/obtaining/. […] The stock solutions were prepared in dimethyl sulfoxide (DMSO, Sigma-Aldrich, St. Louis, MO, cat. D2650), except for the platinum compounds which were prepared in saline (Quality Biological, Gaithersburg, MD, cat. 114-055-101), at 800-fold the tested concentration and stored at -70 degrees C prior to their use. All drugs and investigational agents were tested over a range starting from a high concentration at or near the clinical Cmax and decreasing in half-log increments. If the clinical Cmax for an agent had not been determined, the highest concentration tested was 10 microM, except for SN-38, which was tested at a high concentration of 1 microM.
Cell Culture. All cells were maintained in an incubator at 37 degrees C and 5% CO2 with 95% humidity. The PDC lines were cultured according to standard operating procedures established by the NCI PDMR (https://pdmr.cancer.gov). Table 3 of the manuscript, lists the cell lines along with the number of the three cell types plated to form the mct-spheroids and media for tumor cell growth. After thawing, all PDC lines, except 997537-175-T-J1-PDC and 415267-285-R-J2-PDC, were cultured in Matrigel-coated flasks prepared with a working solution of 1X Ham's F-12 nutrient mix, without supplementation (Thermo Fisher Scientific, cat. 11765054), 100 U/mL penicillin-streptomycin (Thermo Fisher Scientific, cat. 15140122), and 2.5% Matrigel (Corning Inc., Corning, NY, cat. 354248) for the first three passages. The two PDC lines 997537-175-T-J1-PDC and 415267-285-R-J2-PDC were cultured on uncoated flasks. The 857933-349-R-J2-PDC line was cultured in 6C/Colon 1B media containing advanced DMEM/F-12 (Thermo Fisher Scientific, cat. 12634028), 10 mM HEPES (Thermo Fisher Scientific, cat. 15630080), 1X GlutaMAX supplement (Thermo Fisher Scientific, cat. 35050061), 0.1 mg/mL primocin (InvivoGen, San Diego, CA, cat. ant-pm-2), 10% defined fetal bovine serum, heat inactivated (HyClone Laboratories Inc., Logan, UT, cat. SH30070.03HI), 50% L-WRN conditioned media (ATCC, cat. CRL-3276), 1.25 mM N-Acetyl-L-cysteine (Sigma-Aldrich, cat. A9165), 10 mM nicotinamide (Sigma-Aldrich, cat. N0636), 1X B-27 supplement (Thermo Fisher Scientific, cat. 17504044), 1X N-2 supplement (Thermo Fisher Scientific, cat. […]
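Note: spheroids exposed to compounds for seven days.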
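Throughout, for viability, T/C: 100% = DMSO vehicle control viability.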

Compound: CC(=O)O[C@H]1C(=O)[C@@]2(C)[C@H]([C@H](OC(=O)c3ccccc3)[C@]3(O)C[C@H](OC(=O)[C@H](O)[C@@H](NC(=O)c4ccccc4)c4ccccc4)C(C)=C1C3(C)C)[C@]1(OC(C)=O)CO[C@@H]1C[C@@H]2O + COC1C(OC(N)=O)C(O)C(Oc2ccc3c(O)c(NC(=O)c4ccc(O)c(CC=C(C)C)c4)c(=O)oc3c2C)OC1(C)C
- IC50 (second compound 0.0316 µM): 16.4 nM
- IC50 (second compound 0.1 µM): 17.2 nM
- IC50 (second compound 0.316 µM): 16.8 nM
- IC50 (second compound 1 µM): 14.4 nM
- IC50 (second compound 3.16 µM): 17.2 nM
- IC50 (second compound 10 µM): 16 nM
- viability, T/C (second compound 0.0316 µM, first compound 0.00949 µM): 76%
- viability, T/C (second compound 0.0316 µM, first compound 0.03 µM): 21%
- viability, T/C (second compound 0.0316 µM, first compound 0.0949 µM): 10.8%
- viability, T/C (second compound 0.0316 µM, first compound 0.3 µM): 10.2%
- viability, T/C (second compound 0.0316 µM, first compound 0.949 µM): 10.4%
- viability, T/C (second compound 0.0316 µM, first compound 3 µM): 9.91%
- viability, T/C (second compound 0.1 µM, first compound 0.00949 µM): 80.1%
- viability, T/C (second compound 0.1 µM, first compound 0.03 µM): 21.7%
- viability, T/C (second compound 0.1 µM, first compound 0.0949 µM): 12.2%
- viability, T/C (second compound 0.1 µM, first compound 0.3 µM): 9.8%
- viability, T/C (second compound 0.1 µM, first compound 0.949 µM): 8.82%
- viability, T/C (second compound 0.1 µM, first compound 3 µM): 9.35%
- viability, T/C (second compound 0.316 µM, first compound 0.00949 µM): 75.9%
- viability, T/C (second compound 0.316 µM, first compound 0.03 µM): 24.3%
- viability, T/C (second compound 0.316 µM, first compound 0.0949 µM): 9.19%
- viability, T/C (second compound 0.316 µM, first compound 0.3 µM): 11.9%
- viability, T/C (second compound 0.316 µM, first compound 0.949 µM): 9.74%
- viability, T/C (second compound 0.316 µM, first compound 3 µM): 11.2%
- viability, T/C (second compound 1 µM, first compound 0.00949 µM): 66.3%
- viability, T/C (second compound 1 µM, first compound 0.03 µM): 21.7%
- viability, T/C (second compound 1 µM, first compound 0.0949 µM): 10.2%
- viability, T/C (second compound 1 µM, first compound 0.3 µM): 10%
- viability, T/C (second compound 1 µM, first compound 0.949 µM): 10.6%
- viability, T/C (second compound 1 µM, first compound 3 µM): 9.98%
- viability, T/C (second compound 3.16 µM, first compound 0.00949 µM): 84%
- viability, T/C (second compound 3.16 µM, first compound 0.03 µM): 18.2%
- viability, T/C (second compound 3.16 µM, first compound 0.0949 µM): 12.6%
- viability, T/C (second compound 3.16 µM, first compound 0.3 µM): 8.24%
- viability, T/C (second compound 3.16 µM, first compound 0.949 µM): 11.4%
- viability, T/C (second compound 3.16 µM, first compound 3 µM): 10.8%
- viability, T/C (second compound 10 µM, first compound 0.00949 µM): 75.6%
- viability, T/C (second compound 10 µM, first compound 0.03 µM): 19.2%
- viability, T/C (second compound 10 µM, first compound 0.0949 µM): 11.2%
- viability, T/C (second compound 10 µM, first compound 0.3 µM): 9.41%
- viability, T/C (second compound 10 µM, first compound 0.949 µM): 12.8%
- viability, T/C (second compound 10 µM, first compound 3 µM): 11.8%

Compound: COc1cccc2c1C(=O)c1c(O)c3c(c(O)c1C2=O)CC(O)(C(=O)CO)CC3OC1CC(N)C(O)C(C)O1 (centres undefined) + COC1C(OC(N)=O)C(O)C(Oc2ccc3c(O)c(NC(=O)c4ccc(O)c(CC=C(C)C)c4)c(=O)oc3c2C)OC1(C)C
- IC50 (second compound 0.0316 µM): 154 nM
- IC50 (second compound 0.1 µM): 143 nM
- IC50 (second compound 0.316 µM): 162 nM
- IC50 (second compound 1 µM): 145 nM
- IC50 (second compound 3.16 µM): 106 nM
- IC50 (second compound 10 µM): 151 nM
- viability, T/C (second compound 0.0316 µM, first compound 0.0316 µM): 90.2%
- viability, T/C (second compound 0.0316 µM, first compound 0.1 µM): 59.5%
- viability, T/C (second compound 0.0316 µM, first compound 0.316 µM): 33.8%
- viability, T/C (second compound 0.0316 µM, first compound 1 µM): 13.1%
- viability, T/C (second compound 0.0316 µM, first compound 3.16 µM): 0.29%
- viability, T/C (second compound 0.0316 µM, first compound 10 µM): 0.43%
- viability, T/C (second compound 0.1 µM, first compound 0.0316 µM): 91.8%
- viability, T/C (second compound 0.1 µM, first compound 0.1 µM): 57.5%
- viability, T/C (second compound 0.1 µM, first compound 0.316 µM): 32.5%
- viability, T/C (second compound 0.1 µM, first compound 1 µM): 11.4%
- viability, T/C (second compound 0.1 µM, first compound 3.16 µM): 0.37%
- viability, T/C (second compound 0.1 µM, first compound 10 µM): 0.4%
- viability, T/C (second compound 0.316 µM, first compound 0.0316 µM): 92.7%
- viability, T/C (second compound 0.316 µM, first compound 0.1 µM): 61.1%
- viability, T/C (second compound 0.316 µM, first compound 0.316 µM): 34%
- viability, T/C (second compound 0.316 µM, first compound 1 µM): 16.4%
- viability, T/C (second compound 0.316 µM, first compound 3.16 µM): 0.2%
- viability, T/C (second compound 0.316 µM, first compound 10 µM): 0.41%
- viability, T/C (second compound 1 µM, first compound 0.0316 µM): 94.9%
- viability, T/C (second compound 1 µM, first compound 0.1 µM): 54%
- viability, T/C (second compound 1 µM, first compound 0.316 µM): 40.1%
- viability, T/C (second compound 1 µM, first compound 1 µM): 9.16%
- viability, T/C (second compound 1 µM, first compound 3.16 µM): 0.41%
- viability, T/C (second compound 1 µM, first compound 10 µM): 0.44%
- viability, T/C (second compound 3.16 µM, first compound 0.0316 µM): 85.3%
- viability, T/C (second compound 3.16 µM, first compound 0.1 µM): 47.1%
- viability, T/C (second compound 3.16 µM, first compound 0.316 µM): 35.4%
- viability, T/C (second compound 3.16 µM, first compound 1 µM): 8.24%
- viability, T/C (second compound 3.16 µM, first compound 3.16 µM): 0.22%
- viability, T/C (second compound 3.16 µM, first compound 10 µM): 0.55%
- viability, T/C (second compound 10 µM, first compound 0.0316 µM): 77.9%
- viability, T/C (second compound 10 µM, first compound 0.1 µM): 56.6%
- viability, T/C (second compound 10 µM, first compound 0.316 µM): 36.5%
- viability, T/C (second compound 10 µM, first compound 1 µM): 9.76%
- viability, T/C (second compound 10 µM, first compound 3.16 µM): 0.33%
- viability, T/C (second compound 10 µM, first compound 10 µM): 0.51%

— PubChem BioAssay AID1963851 (Molecular Pharmacology Branch, DTP, NCI, 2024)
